{
  "source": "patent US20260263651A1",
  "about": "“WOUND DRESSING” (UNIVERSITY OF SUNDERLAND, priority 2023, published 2026)",
  "key": {"Escherichia coli": {"system": "Escherichia coli", "assay": "Microbiological evaluation of standardised bacterial suspensions, modified wound dressing with absorbed substrate on agar", "format": "cell-based", "parameters": "key to Observable colour change: − indicates no colour change; +− indicates relatively discernible blue colour change; + indicates a moderately strong blue colour change; ++ indicates a strong blue colour change", "description": "ACTIVHEAL® simply A (10×20 cm) non-adhesive foam samples were provided by Advanced Medical Solutions Ltd. The wound dressings were cut into ~5-10×5-10 mm squares, using an ethanol washed pair of scissors. A maximum of 0.20 g of the material was added into 10 mL DI water, and the pH was adjusted to ~3 by the addition of 0.1 M aq. HCl solution. The solution was stirred for 10 mins at room temperature, followed by the addition of 0.33 g EDC •HCl (1.7 mmol) and the pH was maintained at ~3 by the addition of 0.1 M aq. HCl solution. The solution was stirred at room temperature for 10 mins followed by the addition of 0.88 g compound 8 which was dissolved in DMSO or DMF. The mixture was stirred at room temperature for 48 h. The wound dressings were filtered and were washed with ethanol. To ensure the full removal of any non-coupled amide (8), the foam samples were resuspended in ethanol, stirred for 10 mins and filtered, and this process was repeated until the amide (8) was not detectable from the filtrate (this could be maintained by TLC or HPLC evaluation). The samples were dried in a vacuum oven for 3-4 h.\nThe aqueous solution of 3a or 3b was prepared by the following: the desired amount of the enzymatic substrate (3.0 mg for 300 mg/L, 6.0 mg for 600 mg/L, 9.0 mg for 900 mg/L, 15.0 mg for 1500 mg/L, and 30.0 mg for 3000 mg/L) was weighed out on a 4 decimal place balance within ±0.3 mg error limit into a 10 mL volumetric flask and was adjusted to 10.0 mL with DI water. The solutions were absorbed into the foam samples and dried in a vacuum oven at 40° C. overnight.\nBacterial strains were routinely cultured from working stocks in Tryptic Soy Broth (TSB) and incubated at 37° C. overnight with shaking at 150 RPM. Overnight cultures were centrifuged at 3000×g for 5 minutes, the supernatant discarded, and the pellet resuspended in 10 mL phosphate buffered saline (PBS). Bacterial inoculums were standardised by optical density at 600 nm on an Amersham Biosciences Ultrospec 10 spectrophotometer (Amersham Biosciences, Amersham, UK) to contain between 1 and 3×10^8 CFU/mL.\nHowever, rapid evaluation of lower bacteria concentrations is essential for the desired clinical application. Three different solutions (300, 600 and 1500 mg/L) were prepared from the substrates 3a and 3b in micro filtered DI water as a solvent. The solutions were absorbed into the wound dressing samples, which were dried overnight under vacuum at 40° C.\nTwo Gram negative strains (Escherichia coli—EC and Pseudomonas aeruginosa—PSA) and a Gram-positive bacterium (Staphylococcus aureus—SA) were evaluated. The bacteria were incubated overnight, centrifuged at 3000×g for 5 mins, the supernatant was discarded, and the residue pellets were resuspended in 10 mL PBS. The inoculums were standardised by measuring the optical density at 600 nm to assure a 1-3×10^8 CFU/mL. The standardised solutions were further diluted to prepare 1-3×10^6 and 1-3×10^4 CFU/mL suspension. 1×10^6 CFU would be an ideal breakpoint for a positive result, as this concentration coincides well with a level of colonisation that would likely go on to produce an infection.\n100 μL bacterial suspensions were smeared over agar plates. Wound dressing samples were added to the top of the agar and were rolled over a few times (to ensure a full coverage and to ease the visibility of the colour change). The plates were incubated at 37° C., and the results were recorded after 24 h, after 48 h, after 72 h. The results are shown in Table 3-5; − indicates no colour change, +− indicates relatively discernible blue colour change, + indicates a moderately strong blue colour change and ++ indicates a strong blue colour change."}, "Staphylococcus aureus": {"system": "Staphylococcus aureus", "assay": "Microbiological evaluation of standardised bacterial suspensions, modified wound dressing with absorbed substrate on agar", "format": "cell-based", "parameters": "key to Observable colour change: − indicates no colour change; +− indicates relatively discernible blue colour change; + indicates a moderately strong blue colour change; ++ indicates a strong blue colour change", "conditions": "for colour change: SA"}},
  "data": [
    {"smiles": "CC(C)C[C@H](N)C(=O)Nc1ccc(N(C)C)cc1.Cl", "note": "[3a, (2S)-2-amino-N-[4-(dimethylamino)phenyl]-4-methyl-pentanamide hydrochloride]", "values": [
      {"measurement": "Observable colour change", "setting": "Escherichia coli; EC 10^4, substrate 300 mg/L, 24 h at 37° C.", "value": "−"},
      {"measurement": "Observable colour change", "setting": "Escherichia coli; EC 10^4, substrate 300 mg/L, 48 h at 37° C.", "value": "−"},
      {"measurement": "Observable colour change", "setting": "Escherichia coli; EC 10^4, substrate 300 mg/L, 72 h at 37° C.", "value": "−"},
      {"measurement": "Observable colour change", "setting": "Escherichia coli; EC 10^4, substrate 900 mg/L, 24 h at 37° C.", "value": "−"},
      {"measurement": "Observable colour change", "setting": "Escherichia coli; EC 10^4, substrate 900 mg/L, 48 h at 37° C.", "value": "−"},
      {"measurement": "Observable colour change", "setting": "Escherichia coli; EC 10^4, substrate 900 mg/L, 72 h at 37° C.", "value": "+"},
      {"measurement": "Observable colour change", "setting": "Escherichia coli; EC 10^4, substrate 1500 mg/L, 24 h at 37° C.", "value": "−"},
      {"measurement": "Observable colour change", "setting": "Escherichia coli; EC 10^4, substrate 1500 mg/L, 48 h at 37° C.", "value": "+−"},
      {"measurement": "Observable colour change", "setting": "Escherichia coli; EC 10^4, substrate 1500 mg/L, 72 h at 37° C.", "value": "+"},
      {"measurement": "Observable colour change", "setting": "Escherichia coli; EC 10^6, substrate 300 mg/L, 24 h at 37° C.", "value": "−"},
      {"measurement": "Observable colour change", "setting": "Escherichia coli; EC 10^6, substrate 300 mg/L, 48 h at 37° C.", "value": "+−"},
      {"measurement": "Observable colour change", "setting": "Escherichia coli; EC 10^6, substrate 300 mg/L, 72 h at 37° C.", "value": "+"},
      {"measurement": "Observable colour change", "setting": "Escherichia coli; EC 10^6, substrate 900 mg/L, 24 h at 37° C.", "value": "−"},
      {"measurement": "Observable colour change", "setting": "Escherichia coli; EC 10^6, substrate 900 mg/L, 48 h at 37° C.", "value": "+−"},
      {"measurement": "Observable colour change", "setting": "Escherichia coli; EC 10^6, substrate 900 mg/L, 72 h at 37° C.", "value": "+"},
      {"measurement": "Observable colour change", "setting": "Escherichia coli; EC 10^6, substrate 1500 mg/L, 24 h at 37° C.", "value": "+−"},
      {"measurement": "Observable colour change", "setting": "Escherichia coli; EC 10^6, substrate 1500 mg/L, 48 h at 37° C.", "value": "+"},
      {"measurement": "Observable colour change", "setting": "Escherichia coli; EC 10^6, substrate 1500 mg/L, 72 h at 37° C.", "value": "++"},
      {"measurement": "colour change", "setting": "Escherichia coli; EC 10^8, 10^6 or 10^4 CFU, after 72 h, every tested substrate concentration", "value": "moderate or strong blue colour changes"},
      {"measurement": "Observable colour change", "setting": "Escherichia coli; EC 10^8, substrate 300 mg/L, 24 h at 37° C.", "value": "+−"},
      {"measurement": "Observable colour change", "setting": "Escherichia coli; EC 10^8, substrate 300 mg/L, 48 h at 37° C.", "value": "+"},
      {"measurement": "Observable colour change", "setting": "Escherichia coli; EC 10^8, substrate 300 mg/L, 72 h at 37° C.", "value": "++"},
      {"measurement": "Observable colour change", "setting": "Escherichia coli; EC 10^8, substrate 900 mg/L, 24 h at 37° C.", "value": "+−"},
      {"measurement": "Observable colour change", "setting": "Escherichia coli; EC 10^8, substrate 900 mg/L, 48 h at 37° C.", "value": "+"},
      {"measurement": "Observable colour change", "setting": "Escherichia coli; EC 10^8, substrate 900 mg/L, 72 h at 37° C.", "value": "++"},
      {"measurement": "Observable colour change", "setting": "Escherichia coli; EC 10^8, substrate 1500 mg/L, 24 h at 37° C.", "value": "+−"},
      {"measurement": "Observable colour change", "setting": "Escherichia coli; EC 10^8, substrate 1500 mg/L, 48 h at 37° C.", "value": "+"},
      {"measurement": "Observable colour change", "setting": "Escherichia coli; EC 10^8, substrate 1500 mg/L, 72 h at 37° C.", "value": "++"},
      {"measurement": "colour change", "setting": "Escherichia coli; EC, substrate 900 or 1500 mg/L, printed in the 48 h paragraph", "value": "moderate or strong colour change"},
      {"measurement": "Observable colour change", "setting": "Staphylococcus aureus; SA 10^4, substrate 300 mg/L, 24 h at 37° C.", "value": "−"},
      {"measurement": "Observable colour change", "setting": "Staphylococcus aureus; SA 10^4, substrate 300 mg/L, 48 h at 37° C.", "value": "−"},
      {"measurement": "Observable colour change", "setting": "Staphylococcus aureus; SA 10^4, substrate 300 mg/L, 72 h at 37° C.", "value": "−"},
      {"measurement": "Observable colour change", "setting": "Staphylococcus aureus; SA 10^4, substrate 900 mg/L, 24 h at 37° C.", "value": "−"},
      {"measurement": "Observable colour change", "setting": "Staphylococcus aureus; SA 10^4, substrate 900 mg/L, 48 h at 37° C.", "value": "−"},
      {"measurement": "Observable colour change", "setting": "Staphylococcus aureus; SA 10^4, substrate 900 mg/L, 72 h at 37° C.", "value": "−"},
      {"measurement": "Observable colour change", "setting": "Staphylococcus aureus; SA 10^4, substrate 1500 mg/L, 24 h at 37° C.", "value": "−"},
      {"measurement": "Observable colour change", "setting": "Staphylococcus aureus; SA 10^4, substrate 1500 mg/L, 48 h at 37° C.", "value": "−"},
      {"measurement": "Observable colour change", "setting": "Staphylococcus aureus; SA 10^4, substrate 1500 mg/L, 72 h at 37° C.", "value": "−"},
      {"measurement": "Observable colour change", "setting": "Staphylococcus aureus; SA 10^6, substrate 300 mg/L, 24 h at 37° C.", "value": "−"},
      {"measurement": "Observable colour change", "setting": "Staphylococcus aureus; SA 10^6, substrate 300 mg/L, 48 h at 37° C.", "value": "−"},
      {"measurement": "Observable colour change", "setting": "Staphylococcus aureus; SA 10^6, substrate 300 mg/L, 72 h at 37° C.", "value": "−"},
      {"measurement": "Observable colour change", "setting": "Staphylococcus aureus; SA 10^6, substrate 900 mg/L, 24 h at 37° C.", "value": "−"},
      {"measurement": "Observable colour change", "setting": "Staphylococcus aureus; SA 10^6, substrate 900 mg/L, 48 h at 37° C.", "value": "−"},
      {"measurement": "Observable colour change", "setting": "Staphylococcus aureus; SA 10^6, substrate 900 mg/L, 72 h at 37° C.", "value": "−"},
      {"measurement": "Observable colour change", "setting": "Staphylococcus aureus; SA 10^6, substrate 1500 mg/L, 24 h at 37° C.", "value": "−"},
      {"measurement": "Observable colour change", "setting": "Staphylococcus aureus; SA 10^6, substrate 1500 mg/L, 48 h at 37° C.", "value": "−"},
      {"measurement": "Observable colour change", "setting": "Staphylococcus aureus; SA 10^6, substrate 1500 mg/L, 72 h at 37° C.", "value": "−"},
      {"measurement": "Observable colour change", "setting": "Staphylococcus aureus; SA 10^8, substrate 300 mg/L, 24 h at 37° C.", "value": "−"},
      {"measurement": "Observable colour change", "setting": "Staphylococcus aureus; SA 10^8, substrate 300 mg/L, 48 h at 37° C.", "value": "−"},
      {"measurement": "Observable colour change", "setting": "Staphylococcus aureus; SA 10^8, substrate 300 mg/L, 72 h at 37° C.", "value": "−"},
      {"measurement": "Observable colour change", "setting": "Staphylococcus aureus; SA 10^8, substrate 900 mg/L, 24 h at 37° C.", "value": "−"},
      {"measurement": "Observable colour change", "setting": "Staphylococcus aureus; SA 10^8, substrate 900 mg/L, 48 h at 37° C.", "value": "−"},
      {"measurement": "Observable colour change", "setting": "Staphylococcus aureus; SA 10^8, substrate 900 mg/L, 72 h at 37° C.", "value": "−"},
      {"measurement": "Observable colour change", "setting": "Staphylococcus aureus; SA 10^8, substrate 1500 mg/L, 24 h at 37° C.", "value": "−"},
      {"measurement": "Observable colour change", "setting": "Staphylococcus aureus; SA 10^8, substrate 1500 mg/L, 48 h at 37° C.", "value": "+−"},
      {"measurement": "Observable colour change", "setting": "Staphylococcus aureus; SA 10^8, substrate 1500 mg/L, 72 h at 37° C.", "value": "+−"},
      {"measurement": "colour change", "setting": "Staphylococcus aureus; 48 h paragraph, substrate 1500 mg/L", "value": "weak, but discernible colour change"},
      {"measurement": "colour change", "setting": "Staphylococcus aureus; after 72 h, substrate 1500 mg/L", "value": "weak, hardly visible colour change"}
    ]}
  ]
}
